Drawing on patent US9932314B2, “Pyrazole compounds and their use as T-type calcium channel blockers” (IDORSIA PHARMACEUTICALS LTD, priority 2015, dated 2018), this text covers IC50 for 36 molecules.

T1 sequence (O95180 whole entry): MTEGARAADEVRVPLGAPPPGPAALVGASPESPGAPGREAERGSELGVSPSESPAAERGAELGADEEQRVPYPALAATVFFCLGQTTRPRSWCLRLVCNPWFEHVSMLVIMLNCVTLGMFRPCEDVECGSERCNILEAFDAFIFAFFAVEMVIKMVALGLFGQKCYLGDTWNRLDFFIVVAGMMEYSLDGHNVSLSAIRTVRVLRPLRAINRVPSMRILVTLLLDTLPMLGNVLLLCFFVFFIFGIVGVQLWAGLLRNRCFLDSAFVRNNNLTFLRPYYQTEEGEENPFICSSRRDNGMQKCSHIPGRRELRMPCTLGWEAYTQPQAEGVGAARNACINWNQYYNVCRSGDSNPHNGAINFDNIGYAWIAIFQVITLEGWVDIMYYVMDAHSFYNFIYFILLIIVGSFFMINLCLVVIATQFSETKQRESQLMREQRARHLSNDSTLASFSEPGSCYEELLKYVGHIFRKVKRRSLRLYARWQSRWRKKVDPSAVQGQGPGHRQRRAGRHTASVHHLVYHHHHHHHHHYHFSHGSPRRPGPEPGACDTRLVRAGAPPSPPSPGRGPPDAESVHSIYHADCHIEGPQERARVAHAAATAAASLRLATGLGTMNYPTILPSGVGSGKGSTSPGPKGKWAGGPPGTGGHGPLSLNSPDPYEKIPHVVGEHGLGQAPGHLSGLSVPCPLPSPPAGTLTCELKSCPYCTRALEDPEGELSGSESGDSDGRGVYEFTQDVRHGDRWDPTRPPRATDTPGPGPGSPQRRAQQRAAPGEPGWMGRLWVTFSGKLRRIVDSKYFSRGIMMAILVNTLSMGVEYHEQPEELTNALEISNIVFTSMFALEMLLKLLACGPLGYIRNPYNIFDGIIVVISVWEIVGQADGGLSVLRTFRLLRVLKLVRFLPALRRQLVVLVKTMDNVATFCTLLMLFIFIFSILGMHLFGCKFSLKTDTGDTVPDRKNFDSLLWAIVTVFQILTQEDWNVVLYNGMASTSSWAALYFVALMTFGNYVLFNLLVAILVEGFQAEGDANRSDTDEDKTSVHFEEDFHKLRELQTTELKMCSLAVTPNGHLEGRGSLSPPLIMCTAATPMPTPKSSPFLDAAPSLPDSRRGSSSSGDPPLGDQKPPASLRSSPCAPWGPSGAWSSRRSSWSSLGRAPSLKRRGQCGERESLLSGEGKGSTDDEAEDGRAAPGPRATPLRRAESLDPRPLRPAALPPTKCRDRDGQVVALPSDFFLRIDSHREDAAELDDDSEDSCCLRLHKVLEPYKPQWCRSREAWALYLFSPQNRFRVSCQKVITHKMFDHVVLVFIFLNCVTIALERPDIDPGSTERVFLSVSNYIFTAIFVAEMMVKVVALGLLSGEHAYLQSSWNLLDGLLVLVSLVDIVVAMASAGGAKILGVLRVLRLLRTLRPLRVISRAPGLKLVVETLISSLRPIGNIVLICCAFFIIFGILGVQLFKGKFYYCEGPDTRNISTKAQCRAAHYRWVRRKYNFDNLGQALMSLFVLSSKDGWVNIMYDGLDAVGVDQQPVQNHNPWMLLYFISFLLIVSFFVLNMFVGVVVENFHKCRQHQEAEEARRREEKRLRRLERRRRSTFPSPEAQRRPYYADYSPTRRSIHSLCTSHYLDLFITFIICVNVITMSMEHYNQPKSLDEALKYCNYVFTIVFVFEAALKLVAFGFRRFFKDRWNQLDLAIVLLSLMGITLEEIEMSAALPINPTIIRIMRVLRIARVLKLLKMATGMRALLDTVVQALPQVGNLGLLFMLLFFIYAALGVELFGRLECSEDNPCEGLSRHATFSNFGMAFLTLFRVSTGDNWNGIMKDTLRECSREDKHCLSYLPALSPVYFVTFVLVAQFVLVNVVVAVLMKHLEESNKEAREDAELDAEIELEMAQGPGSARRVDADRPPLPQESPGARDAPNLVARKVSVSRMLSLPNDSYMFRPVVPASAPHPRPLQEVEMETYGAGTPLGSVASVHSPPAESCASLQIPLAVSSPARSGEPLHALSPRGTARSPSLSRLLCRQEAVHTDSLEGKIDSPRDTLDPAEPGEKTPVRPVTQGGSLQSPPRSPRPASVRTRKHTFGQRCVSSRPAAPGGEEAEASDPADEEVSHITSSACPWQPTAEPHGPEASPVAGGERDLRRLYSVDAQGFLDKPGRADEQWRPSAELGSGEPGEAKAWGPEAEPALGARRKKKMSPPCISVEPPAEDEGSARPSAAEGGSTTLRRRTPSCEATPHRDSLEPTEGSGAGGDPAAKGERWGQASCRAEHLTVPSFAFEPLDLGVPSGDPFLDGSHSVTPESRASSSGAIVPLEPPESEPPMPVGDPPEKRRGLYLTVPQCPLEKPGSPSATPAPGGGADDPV

This assay addresses T1, voltage-dependent T-type calcium channel subunit alpha-1G (Cav3.2) (Homo sapiens, UniProt O95180).
T1 construct: expressed in transfected cells; host or cells: HEK293
Put plainly: FLIPR calcium flux assay, HEK293 cells recombinantly expressing Cav3.2. The note with it: Cav3.2-channel, Fluo-4-AM, 3 min incubation, stimulation with 10 mM CaCl2. It counts as cell-based. Put shortly: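 HEK293 cells stably expressing human Cav3.2 were loaded with Fluo-4-AM. Compounds diluted in TEAC buffer (pH 7.2) were preincubated for 3 min, then Ca2+ entry was triggered by 10 mM final CaCl2. Inhibition curves were fitted sigmoidally to the area under the fluorescence trace.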
(In general: A change in cytosolic calcium serves as a functional read-out for many receptors and channels.)
As a reminder, the IC50 is the point on the concentration scale where inhibition reaches its midpoint. With `O=C(Cc1ccc(CC2CC2)cc1)Nc1ccn(Cc2ccc(F)cc2)n1` [Example 158, 2-(4-Cyclopropylmethyl-phenyl)-N-[1-(4-fluoro-benzyl)-1H-pyrazol-3-yl]-acetamide], the IC50 amounted to 11 nM.

Consider `N#Cc1ccc(Cn2ccc(NC(=O)Cc3ccc(N4CC(F)C4)nc3)n2)nc1` [Example 159, N-[1-(5-Cyano-pyridin-2-ylmethyl)-1H-pyrazol-3-yl]-2-[6-(3-fluoro-azetidin-1-yl)-pyridin-3-yl]-acetamide], for which the IC50 came to 1180 nM.

For `O=C(Cc1ccc(N2CC(F)C2)nc1)Nc1ccn(Cc2ccc(F)c(F)c2)n1` [Example 160, N-[1-(3,4-Difluoro-benzyl)-1H-pyrazol-3-yl]-2-[6-(3-fluoro-azetidin-1-yl)-pyridin-3-yl]-acetamide], the IC50 worked out at 29 nM.

`N#Cc1ccc(Cn2ccc(NC(=O)Cc3ccc(N4CC(F)C4)nc3)n2)cc1` [Example 161, N-[1-(4-Cyano-benzyl)-1H-pyrazol-3-yl]-2-[6-(3-fluoro-azetidin-1-yl)-pyridin-3-yl]-acetamide]: the IC50 is 258 nM.

With `O=C(Cc1ccc(N2CC(F)C2)nc1)Nc1ccn(Cc2ccc(F)cc2)n1` [Example 162, 2-[6-(3-Fluoro-azetidin-1-yl)-pyridin-3-yl]-N-[1-(4-fluoro-benzyl)-1H-pyrazol-3-yl]-acetamide], the IC50 was 64 nM.

For `COc1ccc(Cn2ccc(NC(=O)Cc3ccc(N4CC(F)C4)nc3)n2)cc1` [Example 163, 2-[6-(3-Fluoro-azetidin-1-yl)-pyridin-3-yl]-N-[1-(4-methoxy-benzyl)-1H-pyrazol-3-yl]-acetamide], the IC50 was determined as 345 nM.

For the molecule `CN(c1ccc(CC(=O)Nc2ccn(Cc3ccc(C#N)cn3)n2)cn1)C1CC1` [Example 164, N-[1-(5-Cyano-pyridin-2-ylmethyl)-1H-pyrazol-3-yl]-2-[6-(cyclopropyl(methyl)amino)-pyridin-3-yl]-acetamide], the IC50 was determined as 568 nM.

Regarding `CN(c1ccc(CC(=O)Nc2ccn(Cc3ccc(F)c(F)c3)n2)cn1)C1CC1` [Example 165, 2-[6-(Cyclopropyl(methyl)amino)-pyridin-3-yl]-N-[1-(3,4-difluoro-benzyl)-1H-pyrazol-3-yl]-acetamide], the IC50 came out at 13 nM.

For the molecule `CN(c1ccc(CC(=O)Nc2ccn(Cc3ccc(C#N)cc3)n2)cn1)C1CC1` [Example 166, N-[1-(4-Cyano-benzyl)-1H-pyrazol-3-yl]-2-[6-(cyclopropyl(methyl)amino)-pyridin-3-yl]-acetamide], the IC50 is 86 nM.

For `CN(c1ccc(CC(=O)Nc2ccn(Cc3ccc(F)cc3)n2)cn1)C1CC1` [Example 167, 2-[6-(Cyclopropyl(methyl)amino)-pyridin-3-yl]-N-[1-(4-fluoro-benzyl)-1H-pyrazol-3-yl]-acetamide], the IC50 came out at 21 nM.

On to `COc1ccc(Cn2ccc(NC(=O)Cc3ccc(N(C)C4CC4)nc3)n2)cc1` [Example 168, 2-[6-(Cyclopropyl(methyl)amino)-pyridin-3-yl]-N-[1-(4-methoxy-benzyl)-1H-pyrazol-3-yl]-acetamide], for which the IC50 was found to be 113 nM.

On to `Cc1cc(Cn2ccc(NC(=O)Cc3ccc(C(C)C)cc3)n2)ncc1C#N` [Example 169, N-[1-(5-Cyano-4-methyl-pyridin-2-ylmethyl)-1H-pyrazol-3-yl]-2-(4-isopropyl-phenyl)-acetamide], for which the IC50 came out at 104 nM.

Regarding `CC(C)c1ccc(CC(=O)Nc2ccn(Cc3cc(C4CC4)c(C#N)cn3)n2)cc1` [Example 170, N-[1-(5-Cyano-4-cyclopropyl-pyridin-2-ylmethyl)-1H-pyrazol-3-yl]-2-(4-isopropyl-phenyl)-acetamide], the IC50 was found to be 191 nM.

With `CCN(C)c1ccc(CC(=O)Nc2ccn(Cc3ccc(C#N)cn3)n2)cn1` [Example 171, N-[1-(5-Cyano-pyridin-2-ylmethyl)-1H-pyrazol-3-yl]-2-[6-(ethyl-methyl-amino)-pyridin-3-yl]-acetamide], the IC50 turned out to be 980 nM.

As to `CCN(C)c1ccc(CC(=O)Nc2ccn(Cc3ccc(F)c(F)c3)n2)cn1` [Example 172, N-[1-(3,4-Difluoro-benzyl)-1H-pyrazol-3-yl]-2-[6-(ethyl-methyl-amino)-pyridin-3-yl]-acetamide], the IC50 was 15 nM.

Consider `CCN(C)c1ccc(CC(=O)Nc2ccn(Cc3ccc(C#N)cc3)n2)cn1` [Example 173, N-[1-(4-Cyano-benzyl)-1H-pyrazol-3-yl]-2-[6-(ethyl-methyl-amino)-pyridin-3-yl]-acetamide], for which the IC50 was 188 nM.

`CCN(C)c1ccc(CC(=O)Nc2ccn(Cc3ccc(OC)cc3)n2)cn1` [Example 174, 2-[6-(Ethyl-methyl-amino)-pyridin-3-yl]-N-[1-(4-methoxy-benzyl)-1H-pyrazol-3-yl]-acetamide]: the IC50 came to 319 nM.

As to `O=C(Cc1ccc(N2CCCC2)nc1)Nc1ccn(Cc2ccc(F)c(F)c2)n1` [Example 175, N-[1-(3,4-Difluoro-benzyl)-1H-pyrazol-3-yl]-2-(6-pyrrolidin-1-yl-pyridin-3-yl)-acetamide], the IC50 turned out to be 17 nM.

Turning to `N#Cc1ccc(Cn2ccc(NC(=O)Cc3ccc(N4CCCC4)nc3)n2)cc1` [Example 176, N-[1-(4-Cyano-benzyl)-1H-pyrazol-3-yl]-2-(6-pyrrolidin-1-yl-pyridin-3-yl)-acetamide], the IC50 came out at 67 nM.

Take `O=C(Cc1ccc(N2CCCC2)nc1)Nc1ccn(Cc2ccc(F)cc2)n1` [Example 177, N-[1-(4-Fluoro-benzyl)-1H-pyrazol-3-yl]-2-(6-pyrrolidin-1-yl-pyridin-3-yl)-acetamide]: the IC50 is 18 nM.

As to `COc1ccc(Cn2ccc(NC(=O)Cc3ccc(N4CCCC4)nc3)n2)cc1` [Example 178, N-[1-(4-Methoxy-benzyl)-1H-pyrazol-3-yl]-2-(6-pyrrolidin-1-yl-pyridin-3-yl)-acetamide], the IC50 was 99 nM.

In the case of `COCCN(C)c1ccc(CC(=O)Nc2ccn(Cc3ccc(C#N)cn3)n2)cn1` [Example 179, N-[1-(5-Cyano-pyridin-2-ylmethyl)-1H-pyrazol-3-yl]-2-{6-[(2-methoxy-ethyl)-methyl-amino]-pyridin-3-yl}-acetamide], the IC50 came out at 2500 nM.

Take `COCCN(C)c1ccc(CC(=O)Nc2ccn(Cc3ccc(F)c(F)c3)n2)cn1` [Example 180, N-[1-(3,4-Difluoro-benzyl)-1H-pyrazol-3-yl]-2-{6-[(2-methoxy-ethyl)-methyl-amino]-pyridin-3-yl}-acetamide]: the IC50 amounted to 33 nM.

As for `COCCN(C)c1ccc(CC(=O)Nc2ccn(Cc3ccc(C#N)cc3)n2)cn1` [Example 181, N-[1-(4-Cyano-benzyl)-1H-pyrazol-3-yl]-2-{6-[(2-methoxy-ethyl)-methyl-amino]-pyridin-3-yl}-acetamide], the IC50 is 272 nM.

As for `COCCN(C)c1ccc(CC(=O)Nc2ccn(Cc3ccc(F)cc3)n2)cn1` [Example 182, N-[1-(4-Fluoro-benzyl)-1H-pyrazol-3-yl]-2-{6-[(2-methoxy-ethyl)-methyl-amino]-pyridin-3-yl}-acetamide], the IC50 was found to be 65 nM.

As for `COCCN(C)c1ccc(CC(=O)Nc2ccn(Cc3ccc(OC)cc3)n2)cn1` [Example 183, N-[1-(4-Methoxy-benzyl)-1H-pyrazol-3-yl]-2-{6-[(2-methoxy-ethyl)-methyl-amino]-pyridin-3-yl}-acetamide], the IC50 came out at 530 nM.

With `CN(CC1CC1)c1ccc(CC(=O)Nc2ccn(Cc3ccc(C#N)cn3)n2)cn1` [Example 184, N-[1-(5-Cyano-pyridin-2-ylmethyl)-1H-pyrazol-3-yl]-2-[6-(cyclopropylmethyl-methyl-amino)-pyridin-3-yl]-acetamide], the IC50 amounted to 490 nM.

Consider `CN(CC1CC1)c1ccc(CC(=O)Nc2ccn(Cc3ccc(F)c(F)c3)n2)cn1` [Example 185, 2-[6-(Cyclopropylmethyl-methyl-amino)-pyridin-3-yl]-N-[1-(3,4-difluoro-benzyl)-1H-pyrazol-3-yl]-acetamide], for which the IC50 was 7.7 nM.

For `CN(CC1CC1)c1ccc(CC(=O)Nc2ccn(Cc3ccc(C#N)cc3)n2)cn1` [Example 186, N-[1-(4-Cyano-benzyl)-1H-pyrazol-3-yl]-2-[6-(cyclopropylmethyl-methyl-amino)-pyridin-3-yl]-acetamide], the IC50 worked out at 41 nM.

With `CN(CC1CC1)c1ccc(CC(=O)Nc2ccn(Cc3ccc(F)cc3)n2)cn1` [Example 187, 2-[6-(Cyclopropylmethyl-methyl-amino)-pyridin-3-yl]-N-[1-(4-fluoro-benzyl)-1H-pyrazol-3-yl]-acetamide], the IC50 was determined as 15 nM.

As for `COc1ccc(Cn2ccc(NC(=O)Cc3ccc(N(C)CC4CC4)nc3)n2)cc1` [Example 188, 2-[6-(Cyclopropylmethyl-methyl-amino)-pyridin-3-yl]-N-[1-(4-methoxy-benzyl)-1H-pyrazol-3-yl]-acetamide], the half-inhibitory concentration (IC50) came out at 60 nM.

As to `CCN(CC)c1ccc(CC(=O)Nc2ccn(Cc3ccc(C#N)cc3)n2)cn1` [Example 189, N-[1-(4-Cyano-benzyl)-1H-pyrazol-3-yl]-2-(6-diethylamino-pyridin-3-yl)-acetamide], the IC50 is 88 nM.

For the molecule `CCN(CC)c1ccc(CC(=O)Nc2ccn(Cc3ccc(F)cc3)n2)cn1` [Example 190, 2-(6-Diethylamino-pyridin-3-yl)-N-[1-(4-fluoro-benzyl)-1H-pyrazol-3-yl]-acetamide], the concentration for half-maximal inhibition (IC50) came to 21 nM.

On to `CCN(CC)c1ccc(CC(=O)Nc2ccn(Cc3ccc(OC)cc3)n2)cn1` [Example 191, 2-(6-Diethylamino-pyridin-3-yl)-N-[1-(4-methoxy-benzyl)-1H-pyrazol-3-yl]-acetamide], for which the IC50 was 93 nM.

`CC(C)c1ccc(CC(=O)Nc2ccn(Cc3ccc(C4CC4)cc3)n2)cc1` [Example 192, N-[1-(4-Cyclopropyl-benzyl)-1H-pyrazol-3-yl]-2-(4-isopropyl-phenyl)-acetamide]: the IC50 stood at 133 nM.

Consider `O=C(Cc1ccc(C2CC2)nc1)Nc1ccn(Cc2ccc(Cl)c(F)c2)n1` [Example 193, N-[1-(4-Chloro-3-fluoro-benzyl)-1H-pyrazol-3-yl]-2-(6-cyclopropyl-pyridin-3-yl)-acetamide], for which the IC50 worked out at 78 nM.
